In patent US20110079773A1, “Selectively Functionalized Rylene Imides and Diimides” (priority 2009, published 2011):
Converted amounts (≈) assume the structure as drawn. “And” between values parts separate entries of the source, which are not always exact repeats. Identical values can stand only once. Marks after values point to notes of the source that are not given here.

How the values were obtained:
Assay type in all cases: physicochemical
[1] = Electrochemistry (redox potentials); conditions: for E^−1/2: first reduction potential
Experimental: Electrochemical measurements were performed using a CH Instruments Model 622 electrochemical workstation. Measurements for compounds 4, 6, 8, and 10 were performed in dichloromethane containing 0.1 M tetrabutylammonium hexafluorophosphate (TBAPF6) electrolyte. Measurements for 2 were performed in benzonitrile with the same electrolyte. A 1.0 mm diameter platinum disk electrode, platinum wire electrode, and […] reference electrode were employed. The ferrocene/ferrocenium redox couple (Fc/Fc^+, 0.46 V vs. SCE) (see Connelly et al., Chem. Rev., 96: 877-910 (1996)) was used as an internal standard. TBAPF6 was recrystallized twice from ethyl acetate prior to use.
Alkylation (e.g., substitution of the phenethyl groups) ortho to the imide nitrogen atoms appears to render the present compounds somewhat more difficult to reduce, but easier to oxidize (Table 3). The reduction potentials of the disubstituted compounds (2, 4, and 6) are approximately 130 mV more negative than those of their parent compounds. Correspondingly, the oxidation potential of the disubstituted 6 is 40 mV less positive than that of […]. Tetrasubstituted 8 and 10 have reduction potentials that are more negative by ˜200 mV than their unsubstituted analogs. These shifts in redox potentials reasonably arise from the electron-donating nature of the alkylating (e.g., phenethyl) groups. The oxidation and reduction potentials of all alkylated molecules shift in the same direction by nearly the same amount, such that the corresponding HOMO-LUMO energy gap remains the same, as is reflected in their electronic absorption and emission spectra described below.

[2] = Femtosecond transient absorption (excited-state decay); conditions: transient absorption decay time constant, dry toluene
From the text: Femtosecond transient absorption measurements were made using a Ti:sapphire laser system as detailed in previously reported work. See Kelley et al., J. Am. Chem. Soc., 129: 3173-3181 (2007). The wavelengths used to excite the samples were 390 nm (1-4), 416 nm (5-8), and 650 nm (9 and 10). The instrument response function for the pump-probe experiments is 160 fs. The transient spectra were obtained using 10 s of averaging at a given delay time. Glass cuvettes with a 2 mm pathlength were used and the samples were dissolved in dry toluene and irradiated with 1.0 μJ pulses at the excitation wavelength. Analysis of the kinetic data was performed at multiple wavelengths using a Levenberg-Marquardt nonlinear least-squares fit to a general sum-of-exponentials function with an added Gaussian to account for the finite instrument response.
The transient absorption spectra of naphthalene monoimide 2, specifically, the S1→>Sn absorption is characterized by a single broad band at 525 nm, which decays monoexponentially with a time constant τD=34 ps. This is similar to the time constant of other NMI compounds and is attributed to rapid intersystem crossing leading to the triplet state of 2. […] The residual 530 nm absorption band decays further with a 175 ps time constant. […]

[3] = Steady-state electronic absorption and fluorescence spectroscopy; conditions: for λmax: UV-vis absorption in toluene; for E(S1): determined from the average energy of the absorption and emission maxima; for ε: extinction coefficient at λmax; for ε / λem: toluene; for λem: fluorescence emission maximum; for φF: fluorescence quantum yield
Experimental: Steady-state electronic absorption spectra were recorded on a Shimadzu 1601 UV/Vis spectrometer with a 2 mm quartz cuvette. Fluorescence measurements were performed using a PTI Quanta-Master 1 single photon counting spectrofluorimeter in a right angle configuration with a 1 cm quartz cuvette.
The intensity of the S0→>S1 transition increases with the size of the aromatic core, while the energy decreases. The fluorescence spectrum of each chromophore is shown in FIG. 4b and summarized in Table 4 along with that of compounds 1, 3, 5, 7, and 9. A similar trend with the emission maxima moving to longer wavelengths as the size of the aromatic core increases was observed. The electronic absorption and fluorescence properties of all the alkylated chromophores are very similar to those of the parent compounds. No observable trend is apparent for the slight shifts in λmax; however, with the exception of 2, all alkylated compounds have slightly lower extinction coefficients than their parent compounds. The fluorescence emission maxima of the alkylated compounds (Table 4) are similar to those of the parent compounds as reported in the literature. See Hydlovic et al., Phtochem. Photobiol. A., 112: 197-203 (1998); Licchelli et al., Chem. Eur. J., 8: 5161-5169 (2002); Weil et al., Chem. Eur. J., 8: 4742-4750 (2002); and Sadrai et al., J. Phys. Chem., 96: 7988-7996 (1992).

[4] = Solubility in toluene
Experimental: As used herein, a compound can be considered soluble in a solvent when at least 0.1 mg of the compound can be dissolved in 1 mL of the solvent. Examples of common organic solvents include petroleum ethers; acetonitrile; aromatic hydrocarbons such as benzene, toluene, xylene, and mesitylene; ketones such as acetone, and methyl ethyl ketone; ethers such as tetrahydrofuran, dioxane, bis(2-methoxyethyl)ether, diethyl ether, di-isopropyl ether, and t-butyl methyl ether; alcohols such as methanol, ethanol, butanol, and isopropyl alcohol; aliphatic hydrocarbons such as hexanes; esters such as methyl acetate, ethyl acetate, methyl formate, ethyl formate, isopropyl acetate, and butyl acetate; amides such as dimethylformamide and dimethylacetamide; sulfoxides such as dimethylsulfoxide; halogenated aliphatic and aromatic hydrocarbons such as dichloromethane, chloroform, ethylene chloride, chlorobenzene, dichlorobenzene, and trichlorobenzene; and cyclic solvents such as cyclopentanone, cyclohexanone, and 2-methypyrrolidone. In various embodiments, the present compounds can have good solubility in solvents that are aromatic hydrocarbons such as benzene, toluene, xylene, and mesitylene.
Table 2 below compares the solubilities of several compounds according to the present teachings with their unsubstituted counterparts in toluene.

[5] = shift versus unsubstituted parent

**Q.** With `CCCCCCCCN1C(=O)c2c(CCc3ccccc3)ccc3ccc(CCc4ccccc4)c(c23)C1=O` [Compound 2, N-(n-octyl)-2,7-bis(phenylethyl)naphthalene-1,8-dicarboximide] as the compound, how does the “E^−1/2” value ([1]; obtained in benzonitrile with 0.1 M TBAPF6) read?
**A.** The value was −1.53^b.

**Q.** And the “Reduction potential more negative than that of parent compound” value [1, 5]?
**A.** The value was “approximately 130 mV”.

**Q.** What about the τD [2] of the same compound?
**A.** The τD was 34 ps and 34 ± 1 ps.

**Q.** What about the λmax [3] of the same compound?
**A.** Its λmax is 353 nm.

**Q.** And the “E(S1)” value [3]?
**A.** The value was 3.34 eV.

**Q.** And the ε [3]?
**A.** The ε was 15000 M⁻¹ cm⁻¹.

**Q.** And the λem [3]?
**A.** Its λem is 394^ nm.

**Q.** And the φF [3]?
**A.** The φF was 0.08.

**Q.** For `CCCCC(CC)CN1C(=O)c2c(CCc3ccccc3)cc3c4cccc5cccc(c6cc(CCc7ccccc7)c(c2c36)C1=O)c54` (stereo not drawn) [Compound 6, N-(2′-ethylhexyl)-2,5-bis(phenethyl)perylene-3,4-dicarboximide], which “E^−1/2” value ([1]; dichloromethane, 0.1 M TBAPF6, Fc/Fc+ (0.46 V vs. SCE) internal standard) is on record?
**A.** Its value is −1.13^.

**Q.** What about the E^+1/2 ([1]; oxidation potential, dichloromethane, 0.1 M TBAPF6, Fc/Fc+ (0.46 V vs. SCE) internal standard) of the same compound?
**A.** Its E^+1/2 is 1.37 V.

**Q.** And the “E^2−1/2” value ([1]; second reduction potential, dichloromethane, 0.1 M TBAPF6)?
**A.** The value was −1.43^.

**Q.** And the “Oxidation potential less positive than that of parent” value [1, 5]?
**A.** The value was 40 mV.

**Q.** And the “Reduction potential more negative than that of parent compound” value [1, 5]?
**A.** Its value is “approximately 130 mV”.

**Q.** What about the τD [2] of the same compound?
**A.** The τD was 4700 ± 88 ps.

**Q.** And the λmax [3]?
**A.** The λmax was 501 nm.

**Q.** What about the “E(S1)” value [3] of the same compound?
**A.** The value was 2.43 eV.

**Q.** What about the ε [3] of the same compound?
**A.** The ε was 27000 M⁻¹ cm⁻¹.

**Q.** And the λem [3]?
**A.** Its λem is 521^ nm.

**Q.** What about the φF [3] of the same compound?
**A.** Its φF is 0.98.

**Q.** What about the “Solubility relative to unsubstituted counterpart” value [4] of the same compound?
**A.** The value was “three times more soluble”.

**Q.** What about the solubility ([4]; organic solvent or mixture) of the same compound?
**A.** The solubility was 6000 µg/mL (≈ 9.35 mM).
